Experiments:
[1] = tested on: MRSA 2 (methicillin-resistant S. aureus, clinical isolate); assay: agar diffusion method, inhibition zone; assay type: cell-based, Staphylococcus aureus; conditions: MRSA 2; MH agar, 18 hours at 37° C.; per disk 10 μl crude extract, 50 μg macrolactin, 78 μg erythromycin, 30 μg vancomycin, 10 μg ampicillin
Experimental: (§1) The agar diffusion method employing Mueller-Hinton (MH) agar (Difco Laboratories) was used to determine effectiveness against bacteria and yeasts. Sterile paper disks (Schleicher & Schüell, Germany) were seeded with 10 μl crude extract or with a solution of purified macrolactin (final compound concentration on the disk 50 μg) and then placed on the surface of MH-agar plates that had been seeded beforehand with a suspension of overnight culture of the test microorganisms at a concentration of 10^5 cells/ml.

[2] = tested on: MRSA 3 (methicillin-resistant S. aureus, clinical isolate); assay: agar diffusion method, inhibition zone; assay type: cell-based, Staphylococcus aureus; conditions: MRSA 3; MH agar, 18 hours at 37° C.; per disk 10 μl crude extract, 50 μg macrolactin, 78 μg erythromycin, 30 μg vancomycin, 10 μg ampicillin
Experimental: as §1

[3] = tested on: S. aureus # (own collection, methicillin-sensitive control strain); assay: agar diffusion method, inhibition zone; assay type: cell-based, Staphylococcus aureus; conditions: S. aureus # own collection; MH agar, 18 hours at 37° C.; per disk 10 μl crude extract, 50 μg macrolactin, 78 μg erythromycin, 30 μg vancomycin, 10 μg ampicillin
Experimental: as §1

[4] = tested on: S. aureus DSMZ 1104; assay: agar diffusion method, inhibition zone; assay type: cell-based, Staphylococcus aureus; conditions: S. aureus DSMZ 1104; MH agar, 18 hours at 37° C.; per disk 10 μl crude extract, 50 μg macrolactin, 78 μg erythromycin, 30 μg vancomycin, 10 μg ampicillin
Experimental: as §1

[5] = tested on: E. faecalis ATCC 29212; assay: agar diffusion method, inhibition zone; assay type: cell-based, Enterococcus faecalis; conditions: E. faecalis ATCC 29212; MH agar, 18 hours at 37° C.; per disk 10 μl crude extract, 50 μg macrolactin, 78 μg erythromycin, 30 μg vancomycin, 10 μg ampicillin
Experimental: as §1

[6] = tested on: E. faecalis VRAS E305; assay: agar diffusion method, inhibition zone; assay type: cell-based, Enterococcus faecalis; conditions: E. faecalis VRAS E305; MH agar, 18 hours at 37° C.; per disk 10 μl crude extract, 50 μg macrolactin, 78 μg erythromycin, 30 μg vancomycin, 10 μg ampicillin
Experimental: as §1

[7] = tested on: E. faecium VRAR E315; assay: agar diffusion method, inhibition zone; assay type: cell-based, Enterococcus faecium; conditions: E. faecium VRAR E315; MH agar, 18 hours at 37° C.; per disk 10 μl crude extract, 50 μg macrolactin, 78 μg erythromycin, 30 μg vancomycin, 10 μg ampicillin
Experimental: as §1

[8] = tested on: B. cepacia SCV 141; assay: agar diffusion method, inhibition zone; assay type: cell-based, Burkholderia cepacia; conditions: MH agar, 18 hours at 37° C., per disk 10 μl crude extract, 50 μg macrolactin, 78 μg erythromycin, 10 μg ampicillin
Experimental: as §1
The B. cepacia strain used, which is a clinical isolate from a cystic fibrosis patient, forms small colonies (SCV 141).

[9] = tested on: L929 mouse fibroblast cells; assay: inhibition of proliferation, CyQUANT cell proliferation test; assay type: cell-based; conditions: 5 days
Experimental: The cytotoxicity of 7-O-malonyl macrolactin A was compared to that of 7-O-succinyl macrolactin A and macrolactin A in vitro with respect to the inhibition of the proliferation of L929 mouse fibroblast cells or the human epithelial cell line HeLa.
For the cell culture, the HeLa cells were cultivated in low-glucose DMEM medium (Gibco), and the L929 cells in high-glucose DMEM medium. Both were supplemented with 10% by volume foetal calf serum (Gibco) at 37° C. in an atmosphere containing 5% CO2. The cells were extracted from stock cultures by means of trypsinization with EDTA (HeLa) or without EDTA (L929), then counted and diluted to 2×10^5 cells/ml. For the tests, microtitre plates (Nunc.) comprising 96 depressions were plated out in serial dilution without or in the presence of the test compounds or methanol. Determination of morphological alterations of the cells was carried out by means of phase contrast microscopy after 1, 2 and 5 days incubation.
After 5 days cultivation, cell counts were determined by the CyQUANT cell proliferation test (Molecular Probes), which is a highly sensitive microtitre plate test based on fluorescence. The test employs the dye CyQUANT, which, by binding to cellular nucleic acids, enhances fluorescence, which can then be measured by fluorescein excitation. The emission of fluorescence by the dye-nucleic acid complex correlated linearly with the cell count. For test purposes, the residue was carefully removed after 5 days incubation, the cells washed with PBS (phosphate buffered saline solution), the buffer removed and the cells frozen at −80° C. For the test, the cells were thawed at ambient temperature and lysated in a buffered solution containing the dye CyQUANT, in accordance with manufacturer's instructions. Fluorescence was measured by means of a fluormetric microtitre-plate reader (Titertex Fluorskan II) (excitation at 480 nm, emission at 520 nm). The […] were used to calculate the percentage of cellular proliferation in medium both alone and in the presence of serial dilutions of methanol and the macrolactin compounds. […] Proliferation was measured by means of the fluorescence-based test CyQUANT for determining viable cell counts. Table 5 illustrates the relative inhibition of proliferation as compared to a control culture comprising fresh medium without the addition of a macrolactin.

[10] = tested on: HIV; conditions: state of the art; cited from earlier work
[11] = state of the art; cited from earlier work
[12] = tested on: bacteria; conditions: state of the art; cited from earlier work
[13] = JP 9301970; cited from earlier work

Row | Compound | Inhibition zone [1] [mm] | Inhibition zone [2] [mm] | Inhibition zone [3] [mm] | Inhibition zone [4] [mm] | Inhibition zone [5] [mm] | Inhibition zone [6] [mm] | Inhibition zone [7] [mm] | Inhibition zone [8] [mm] | Inhibition of proliferation ([9]; compound concentration 3.9 μg/ml) [%] | Inhibition of proliferation ([9]; compound concentration 7.8 μg/ml) [%] | Inhibition of proliferation ([9]; compound concentration 15.6 μg/ml) [%] | Inhibition of proliferation ([9]; compound concentration 31.25 μg/ml) [%] | Inhibition of proliferation ([9]; compound concentration 56.5 μg/ml) [%] | Inhibition of proliferation ([9]; compound concentration 125 μg/ml) [%] | antiviral activity [10] | cytotoxicity [11] | antibacterial activity [12] | antimicrobial activity [13]
1 | C[C@@H]1CCC/C=C/C=C/C(O)CC(O)C/C=C\C=C\C(O)C/C=C/C=C\C(=O)O1 (stereo partly drawn) [Macrolactin A, 8, 14, 16-trihydroxy-24(R)-methyl-oxacyclotetracosa-3(Z), 5(B), 9(E), 11(Z), 17(E), 19(E)-hexaen-2-on] | 27 | 35 | 25 | 18 | 0 | 0 | 0 | 0 | 23 | 29 | 38 | 81 | 83 | 83 | active against HIV | cytotoxic | relatively weak | 
2 | macrolactin M |  |  |  |  |  |  |  |  |  |  |  |  |  |  |  |  |  | antimicrobially active

From patent US7977375B2, “Antibiotic and method of production thereof” (Helmholtz-Zentrum Für Infektionsforschung GmbH, priority 2004, dated 2011)
